Source: publication PMC4685510, “A Cell Biologist’s Field Guide to Aurora Kinase Inhibitors” (Frontiers in Oncology, 2015)
Where two headings read alike, the source gives them in different places.

Columns and labels:
Test in all cases: biochemical
Type in all cases: biochemical
[1] = target: T1, 363 human kinases (including Aurora A/B/C) (Homo sapiens, UniProt Q9BZL6); conditions: PKD2/PRKD2; for remaining activity at 0.1 µM: 100 nM; for remaining activity at 0.1 µM / remaining activity at 0.5 µM: read-out: % Enzyme Activity (relative to DMSO controls)
T1 sequence (Q9BZL6 1-878): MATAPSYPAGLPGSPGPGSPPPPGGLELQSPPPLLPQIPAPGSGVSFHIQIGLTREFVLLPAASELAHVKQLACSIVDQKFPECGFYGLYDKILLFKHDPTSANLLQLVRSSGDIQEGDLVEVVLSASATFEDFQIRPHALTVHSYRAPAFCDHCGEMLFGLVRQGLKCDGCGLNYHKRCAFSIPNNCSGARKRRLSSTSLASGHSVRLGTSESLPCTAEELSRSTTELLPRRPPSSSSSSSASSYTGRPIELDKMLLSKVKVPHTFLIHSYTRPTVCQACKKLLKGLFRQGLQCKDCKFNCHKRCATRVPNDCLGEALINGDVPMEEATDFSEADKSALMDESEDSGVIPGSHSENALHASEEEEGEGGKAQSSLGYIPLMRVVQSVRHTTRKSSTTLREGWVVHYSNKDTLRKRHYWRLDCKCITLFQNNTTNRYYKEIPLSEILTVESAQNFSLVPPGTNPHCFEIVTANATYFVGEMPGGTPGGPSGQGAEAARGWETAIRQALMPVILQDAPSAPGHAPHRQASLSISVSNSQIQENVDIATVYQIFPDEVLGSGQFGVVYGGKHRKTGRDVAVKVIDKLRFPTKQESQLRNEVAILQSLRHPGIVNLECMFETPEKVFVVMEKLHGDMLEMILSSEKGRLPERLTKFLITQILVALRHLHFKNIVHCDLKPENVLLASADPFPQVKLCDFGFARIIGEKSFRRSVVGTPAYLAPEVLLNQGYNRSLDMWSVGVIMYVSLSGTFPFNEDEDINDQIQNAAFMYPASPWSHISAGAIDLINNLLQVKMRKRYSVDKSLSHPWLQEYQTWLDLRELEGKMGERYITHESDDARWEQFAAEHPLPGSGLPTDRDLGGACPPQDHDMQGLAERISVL
Description: (§1) However, the Aurora A/B selectivity ratios derived from our in vitro and in vivo data can be compared to prioritize inhibitors.

[2] = target: 363 human kinases (including Aurora A/B/C) (Homo sapiens, UniProt P04629); conditions: TRKA; for remaining activity at 0.1 µM: 100 nM
Sequence of 363 human kinases (including Aurora A/B/C) (Homo sapiens, UniProt P04629) (P04629 33-796): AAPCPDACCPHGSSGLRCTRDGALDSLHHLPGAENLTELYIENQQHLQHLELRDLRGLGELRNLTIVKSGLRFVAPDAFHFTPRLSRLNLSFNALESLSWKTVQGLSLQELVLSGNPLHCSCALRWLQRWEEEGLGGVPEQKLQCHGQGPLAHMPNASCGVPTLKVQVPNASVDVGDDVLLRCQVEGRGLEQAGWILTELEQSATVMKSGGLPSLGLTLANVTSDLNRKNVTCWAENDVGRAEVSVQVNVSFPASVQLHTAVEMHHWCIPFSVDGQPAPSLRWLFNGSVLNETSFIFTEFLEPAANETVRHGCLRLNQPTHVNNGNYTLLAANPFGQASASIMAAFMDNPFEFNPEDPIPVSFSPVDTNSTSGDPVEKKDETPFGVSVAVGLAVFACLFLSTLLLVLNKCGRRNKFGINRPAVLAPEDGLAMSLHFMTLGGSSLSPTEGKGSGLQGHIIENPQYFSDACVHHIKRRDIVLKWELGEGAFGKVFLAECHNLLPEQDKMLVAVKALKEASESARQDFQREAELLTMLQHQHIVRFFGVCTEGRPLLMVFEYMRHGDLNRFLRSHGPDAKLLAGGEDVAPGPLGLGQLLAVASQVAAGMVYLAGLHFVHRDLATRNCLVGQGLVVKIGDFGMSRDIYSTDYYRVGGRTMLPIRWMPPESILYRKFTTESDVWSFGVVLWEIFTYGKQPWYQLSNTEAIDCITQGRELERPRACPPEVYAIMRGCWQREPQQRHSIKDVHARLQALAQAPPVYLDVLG
Description: as §1

[3] = target: 363 human kinases (including Aurora A/B/C) (Homo sapiens, UniProt Q96NX5); conditions: CAMK1g, [ATP] 30 µM; for remaining activity at 0.1 µM: 100 nM; for remaining activity at 0.1 µM / remaining activity at 0.5 µM: read-out: % Enzyme Activity (relative to DMSO controls)
Sequence of 363 human kinases (including Aurora A/B/C) (Homo sapiens, UniProt Q96NX5) (Q96NX5 whole entry): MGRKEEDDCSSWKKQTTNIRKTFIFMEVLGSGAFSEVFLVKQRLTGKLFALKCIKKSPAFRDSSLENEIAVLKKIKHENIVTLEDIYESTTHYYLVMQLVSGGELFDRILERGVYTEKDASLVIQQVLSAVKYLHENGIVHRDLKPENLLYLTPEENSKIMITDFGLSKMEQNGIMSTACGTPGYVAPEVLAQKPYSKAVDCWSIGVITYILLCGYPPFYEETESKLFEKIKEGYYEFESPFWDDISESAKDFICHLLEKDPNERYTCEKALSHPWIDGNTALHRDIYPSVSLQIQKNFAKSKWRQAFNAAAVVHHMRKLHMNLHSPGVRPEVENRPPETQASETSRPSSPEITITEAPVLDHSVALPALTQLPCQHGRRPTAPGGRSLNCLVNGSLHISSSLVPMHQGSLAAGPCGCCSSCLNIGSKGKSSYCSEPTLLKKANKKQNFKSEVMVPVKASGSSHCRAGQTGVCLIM
Description: as §1

[4] = target: T2, 363 human kinases (including Aurora A/B/C) (Homo sapiens, UniProt Q8NE63); conditions: HIPK4; for remaining activity at 0.1 µM: 100 nM; for remaining activity at 0.1 µM / remaining activity at 0.5 µM: read-out: % Enzyme Activity (relative to DMSO controls)
T2 sequence (Q8NE63 1-616): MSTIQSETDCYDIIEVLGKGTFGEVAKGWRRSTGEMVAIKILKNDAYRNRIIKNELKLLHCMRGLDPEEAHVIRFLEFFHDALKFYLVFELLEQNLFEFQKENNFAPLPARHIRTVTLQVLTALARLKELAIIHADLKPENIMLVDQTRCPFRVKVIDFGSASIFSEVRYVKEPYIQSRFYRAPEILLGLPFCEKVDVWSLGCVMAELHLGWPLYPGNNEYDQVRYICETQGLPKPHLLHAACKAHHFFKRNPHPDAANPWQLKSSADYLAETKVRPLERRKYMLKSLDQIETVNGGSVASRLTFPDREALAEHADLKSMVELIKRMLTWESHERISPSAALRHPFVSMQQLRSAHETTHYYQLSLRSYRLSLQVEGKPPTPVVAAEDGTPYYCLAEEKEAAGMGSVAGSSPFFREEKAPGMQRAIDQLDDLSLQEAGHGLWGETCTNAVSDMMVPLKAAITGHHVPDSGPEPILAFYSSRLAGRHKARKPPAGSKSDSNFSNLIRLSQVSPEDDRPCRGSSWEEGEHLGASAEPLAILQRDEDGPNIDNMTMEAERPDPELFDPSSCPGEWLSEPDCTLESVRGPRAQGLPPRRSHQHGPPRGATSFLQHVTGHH
Description: as §1

[5] = target: 363 human kinases (including Aurora A/B/C) (Homo sapiens, UniProt P17948); conditions: FLT1/VEGFR1, [ATP] 2.5 µM; for remaining activity at 0.1 µM: 100 nM; for remaining activity at 0.1 µM / remaining activity at 0.5 µM: read-out: % Enzyme Activity (relative to DMSO controls)
Sequence of 363 human kinases (including Aurora A/B/C) (Homo sapiens, UniProt P17948) (P17948 27-1338): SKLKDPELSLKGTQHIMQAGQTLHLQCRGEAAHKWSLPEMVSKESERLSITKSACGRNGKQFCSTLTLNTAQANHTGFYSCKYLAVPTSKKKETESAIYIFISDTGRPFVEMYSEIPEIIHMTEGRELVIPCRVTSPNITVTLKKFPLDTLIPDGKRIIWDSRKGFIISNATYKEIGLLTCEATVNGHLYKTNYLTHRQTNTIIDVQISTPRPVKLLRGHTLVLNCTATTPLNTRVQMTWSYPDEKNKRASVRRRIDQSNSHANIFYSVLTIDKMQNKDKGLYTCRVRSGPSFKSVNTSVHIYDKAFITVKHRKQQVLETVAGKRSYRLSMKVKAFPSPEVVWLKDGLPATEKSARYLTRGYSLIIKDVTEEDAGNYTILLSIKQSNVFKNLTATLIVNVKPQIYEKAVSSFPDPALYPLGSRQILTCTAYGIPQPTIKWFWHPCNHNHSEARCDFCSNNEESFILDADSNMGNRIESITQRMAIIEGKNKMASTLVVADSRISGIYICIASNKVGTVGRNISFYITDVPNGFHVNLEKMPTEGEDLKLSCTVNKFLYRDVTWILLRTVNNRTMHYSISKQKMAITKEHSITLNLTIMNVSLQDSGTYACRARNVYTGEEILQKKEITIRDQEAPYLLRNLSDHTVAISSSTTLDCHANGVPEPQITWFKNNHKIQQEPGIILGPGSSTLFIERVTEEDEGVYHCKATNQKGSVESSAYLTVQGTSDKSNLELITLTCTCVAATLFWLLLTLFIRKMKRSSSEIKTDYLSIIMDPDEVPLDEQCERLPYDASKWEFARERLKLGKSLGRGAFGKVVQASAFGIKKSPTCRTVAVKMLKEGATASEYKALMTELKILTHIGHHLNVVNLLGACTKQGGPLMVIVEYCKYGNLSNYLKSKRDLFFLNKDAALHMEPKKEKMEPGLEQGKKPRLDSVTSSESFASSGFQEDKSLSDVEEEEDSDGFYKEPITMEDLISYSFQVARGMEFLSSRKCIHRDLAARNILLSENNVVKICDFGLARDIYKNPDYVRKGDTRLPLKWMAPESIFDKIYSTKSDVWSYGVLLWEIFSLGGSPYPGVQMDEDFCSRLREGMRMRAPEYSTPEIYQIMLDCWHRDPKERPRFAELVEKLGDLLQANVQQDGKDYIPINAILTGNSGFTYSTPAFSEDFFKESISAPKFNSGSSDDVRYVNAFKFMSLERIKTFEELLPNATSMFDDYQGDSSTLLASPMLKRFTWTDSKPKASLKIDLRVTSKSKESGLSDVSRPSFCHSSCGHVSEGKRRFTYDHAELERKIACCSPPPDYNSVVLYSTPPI
Description: as §1

[6] = target: 363 human kinases (including Aurora A/B/C) (Homo sapiens, UniProt P11802); conditions: for remaining activity at 0.1 µM: 100 nM; for remaining activity at 0.1 µM / remaining activity at 0.5 µM: read-out: % Enzyme Activity (relative to DMSO controls); for remaining activity at 0.5 µM / % Enzyme Activity (relative to DMSO controls): 500 nM
Sequence of 363 human kinases (including Aurora A/B/C) (Homo sapiens, UniProt P11802) (P11802 whole entry): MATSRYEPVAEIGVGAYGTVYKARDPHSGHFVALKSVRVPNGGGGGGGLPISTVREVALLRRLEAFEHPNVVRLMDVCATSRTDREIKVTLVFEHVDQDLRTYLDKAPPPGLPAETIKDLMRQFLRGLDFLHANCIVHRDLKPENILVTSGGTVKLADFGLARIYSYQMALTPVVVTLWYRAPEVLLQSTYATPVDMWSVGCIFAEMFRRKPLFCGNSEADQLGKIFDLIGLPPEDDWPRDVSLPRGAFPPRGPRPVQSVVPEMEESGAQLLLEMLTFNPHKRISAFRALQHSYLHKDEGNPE
Description: as §1

[7] = target: T3, 363 human kinases (including Aurora A/B/C) (Homo sapiens, UniProt P54760); conditions: EPHB4, [ATP] 20 µM; for remaining activity at 0.1 µM: 100 nM; for remaining activity at 0.1 µM / remaining activity at 0.5 µM: read-out: % Enzyme Activity (relative to DMSO controls)
T3 sequence (P54760 16-987): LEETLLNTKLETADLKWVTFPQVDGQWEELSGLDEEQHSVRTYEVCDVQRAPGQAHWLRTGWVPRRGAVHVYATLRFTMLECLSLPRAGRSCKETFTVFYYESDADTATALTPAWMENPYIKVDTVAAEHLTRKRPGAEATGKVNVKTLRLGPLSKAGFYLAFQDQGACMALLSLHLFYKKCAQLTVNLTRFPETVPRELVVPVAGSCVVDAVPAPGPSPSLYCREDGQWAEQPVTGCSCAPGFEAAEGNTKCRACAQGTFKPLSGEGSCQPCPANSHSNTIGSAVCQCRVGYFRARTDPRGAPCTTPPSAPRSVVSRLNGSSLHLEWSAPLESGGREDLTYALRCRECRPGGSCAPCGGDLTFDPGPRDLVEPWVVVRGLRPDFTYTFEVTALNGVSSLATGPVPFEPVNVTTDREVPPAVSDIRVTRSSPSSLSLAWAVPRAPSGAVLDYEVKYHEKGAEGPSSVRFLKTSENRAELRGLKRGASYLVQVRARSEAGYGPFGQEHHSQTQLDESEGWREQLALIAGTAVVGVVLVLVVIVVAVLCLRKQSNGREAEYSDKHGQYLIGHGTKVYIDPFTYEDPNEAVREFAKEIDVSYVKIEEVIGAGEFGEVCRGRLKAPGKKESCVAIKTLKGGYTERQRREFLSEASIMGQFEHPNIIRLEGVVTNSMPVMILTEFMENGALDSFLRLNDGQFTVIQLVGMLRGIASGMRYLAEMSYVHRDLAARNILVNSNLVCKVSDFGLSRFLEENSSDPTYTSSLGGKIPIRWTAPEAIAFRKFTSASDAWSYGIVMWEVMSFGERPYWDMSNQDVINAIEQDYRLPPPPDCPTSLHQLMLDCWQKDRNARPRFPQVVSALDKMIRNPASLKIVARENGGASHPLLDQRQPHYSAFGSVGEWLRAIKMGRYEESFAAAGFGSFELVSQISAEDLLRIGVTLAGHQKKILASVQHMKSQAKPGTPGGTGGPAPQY
Description: as §1

[8] = read-out: % Enzyme Activity (relative to DMSO controls)

| SMILES | remaining activity at 0.1 µM [1] [%] | remaining activity at 0.1 µM [2, 8] [%] | remaining activity at 0.1 µM [3] [%] | remaining activity at 0.1 µM [4] [%] | remaining activity at 0.1 µM [5] [%] | remaining activity at 0.1 µM ([6]; CDK4/cyclin D1, [ATP] 30 µM) [%] | remaining activity at 0.1 µM ([6]; CDK4/cyclin D3, [ATP] 15 µM) [%] | remaining activity at 0.1 µM [7] [%] | remaining activity at 0.5 µM ([1]; 500 nM) [%] | remaining activity at 0.5 µM ([3]; 500 nM) [%] | remaining activity at 0.5 µM ([4]; 500 nM) [%] | remaining activity at 0.5 µM ([5]; 500 nM) [%] | remaining activity at 0.5 µM ([6]; CDK4/cyclin D1, [ATP] 30 µM) [%] | remaining activity at 0.5 µM ([6]; CDK4/cyclin D3, [ATP] 15 µM) [%] | remaining activity at 0.5 µM ([7]; 500 nM) [%] | other results |
| --- | --- | --- | --- | --- | --- | --- | --- | --- | --- | --- | --- | --- | --- | --- | --- | --- |
| CCn1cc(-c2ccnc3[nH]c(-c4cccc(CN(C)C)c4)cc23)c(-c2ccc(NC(=O)N(C)C)cc2)n1 [GSK1070916] | 93.3 | 87.7 | 96.3 | 86.9 | 64.4 | 97.5 | 95.6 | 87.9 | – | – | – | – | – | – | – | – |
| O=C(O)[C@]1(Cc2cccc(Nc3nccs3)n2)CC[C@@H](Oc2cccc(Cl)c2F)CC1 [MK-5108] | 98.5 | 8.42 | 100 | 24.4 | 58.4 | 96.4 | 99 | 29.5 | 101 | 93.7 | 5.4 | 29.5 | 96.1 | 98.8 | 5.58 | – |
| O=C(c1cccc(Cl)c1F)N1CCN(Cc2cccc(Nc3nccs3)n2)CC1 [MK-8745] | – | – | – | – | – | – | – | – | 98.1 | 91.9 | 78.7 | 93.4 | 97.2 | 93.1 | 47.7 | % Enzyme Activity (relative to DMSO controls) ([1]; 500 nM): 96.92%; % Enzyme Activity (relative to DMSO controls) ([2]; 500 nM): 32.47%; remaining activity at 0.5 µM ([2]; 500 nM, read-out: % Enzyme Activity (relative to DMSO controls)): 34.6%; % Enzyme Activity (relative to DMSO controls) ([3]; 500 nM): 91.44%; % Enzyme Activity (relative to DMSO controls) ([4]; 500 nM): 76.34%; % Enzyme Activity (relative to DMSO controls) ([5]; 500 nM): 90.99%; % Enzyme Activity (relative to DMSO controls) ([6]; CDK4/cyclin D1, [ATP] 30 µM): 96.49%; % Enzyme Activity (relative to DMSO controls) ([6]; CDK4/cyclin D3, [ATP] 15 µM): 93.01%; % Enzyme Activity (relative to DMSO controls) ([7]; 500 nM): 47.01% |
